# Reference: patent US20220389019A1, “TrkB POSITIVE ALLOSTERIC MODULATORS” (Université de Strasbourg, priority 2019, published 2022)
# Tested on: TrkB
# Experiment: TrkB phosphorylation assay: potentiation of BDNF-induced TrkB phosphorylation in cortical neurons
# Type: cell-based
# Conditions: potentation at a PAM concentration of 10 nM of 0.4 nM BDNF-induced TrkB phosphorylation in cortical neurons
# Text: It is meant by “positive allosteric modulator” (PAM), also known as allosteric enhancer or potentiator, a compound that induces an amplification of the effect of receptor's response to the primary ligand without directly activating the receptor. Within this invention, PAM TrkB activity is related to the potentation of BDNF effects on the functional activity of the TrkB receptor, measured in vitro or in vivo by mean of a specific TrkB receptor phosphorylation assay.
# In Vitro Activity of LIT-TB Derivatives in a TrkB Phosphorylation Assay
row,SMILES,PAM TrkB activity
1,"CN1CCN(c2ccc3nnc(CCC(=O)N[C@H]4CCN(Cc5ccccc5)C[C@@H]4F)n3n2)CC1 [LIT-TB048, N-[(3S,4S)-1-benzyl-3-fluoropiperidin-4-yl]-3-[6-(4-methylpiperazin-1-yl)-[1,2,4]triazolo[4,3-b]pyridazin-3-yl]propanamide]",+++ (+++: >35%)
2,"CN1CCN(c2ccc3nnc(CCC(=O)NC4CCN(Cc5ccc(Cl)c(Cl)c5)CC4)n3n2)CC1 [LIT-TB026, N-{1-[(3,4-dichlorophenyl)methyl]piperidin-4-yl}-3-[6-(4-methylpiperazin-1-yl)-[1,2,4]triazolo[4,3-b]pyridazin-3-yl]propanamide]",+ (+: <20%)
3,O=C(CCc1nnc2ccc(N3CCN(Cc4ccccc4)CC3)nn12)NC1CCN(Cc2ccccc2)CC1 [LIT-TB005],+++ (+++: >35%)
4,"CN1CCN(c2ccc3nnc(CCC(=O)NC4CCN(c5ccccc5)CC4)n3n2)CC1 [LIT-TB035, 3-[6-(4-methylpiperazin-1-yl)-[1,2,4]triazolo[4,3-b]pyridazin-3-yl]-N-(1-phenylpiperidin-4-yl)propanamide]",++ (++: 20-35%)
5,"COc1ccc(CN2CCC(NC(=O)CCc3nnc4ccc(N5CCN(C)CC5)nn34)CC2)c(F)c1.Cl.Cl [LIT-TB046, N-{1-[(2-fluoro-4-methoxyphenyl)methyl]piperidin-4-yl}-3-[6-(4-methylpiperazin-1-yl)-[1,2,4]triazolo[4,3-b]pyridazin-3-yl]propanamide dihydrochloride]",+ (+: <20%)
6,"COc1ccc(CN2CC[C@@H](NC(=O)CCc3nnc4ccc(N5CCN(C)CC5)nn34)[C@H](F)C2)cc1 [LIT-TB053, N-[(3R,4R)-3-fluoro-1-[(4-methoxyphenyl)methyl]piperidin-4-yl]-3-[6-(4-methylpiperazin-1-yl)-[1,2,4]triazolo[4,3-b]pyridazin-3-yl]propanamide]",++ (++: 20-35%)
7,"CN1CCN(c2ccc3nnc(CCC(=O)NC4CCN(Cc5ccncc5)CC4)n3n2)CC1 [LIT-TB025, 3-[6-(4-methylpiperazin-1-yl)-[1,2,4]triazolo[4,3-b]pyridazin-3-yl]-N-[1-(pyridin-4-ylmethyl)piperidin-4-yl]propanamide]",+ (+: <20%)
8,"Cc1cc(F)ccc1CN1CCC(NC(=O)CCc2nnc3ccc(N4CCN(C)CC4)nn23)CC1 [LIT-TB044, N-{1-[(4-fluoro-2-methylphenyl)methyl]piperidin-4-yl}-3-[6-(4-methylpiperazin-1-yl)-[1,2,4]triazolo[4,3-b]pyridazin-3-yl]propanamide]",++ (++: 20-35%)
9,"CN1CCC(NC(=O)CCc2nnc3ccc(N4CCN(C)CC4)nn23)CC1 [LIT-TB016, 3-[6-(4-methylpiperazin-1-yl)-[1,2,4]triazolo[4,3-b]pyridazin-3-yl]-N-(1-methyl-piperidin-4-yl)propanamide]",+++ (+++: >35%)
10,"CN1CCN(c2ccc3nnc(CCC(=O)NC4CCN(C(=O)c5ccccc5)CC4)n3n2)CC1.Cl [LIT-TB027, N-(1-benzoylpiperidin-4-yl)-3-[6-(4-methylpiperazin-1-yl)-[1,2,4]triazolo[4,3-b]pyridazin-3-yl]propanamide hydrochloride]",+ (+: <20%)
11,"Cc1ccccc1CN1CCC(NC(=O)CCc2nnc3ccc(N4CCN(C)CC4)nn23)CC1 [LIT-TB024, N-{1-[(2-methylphenyl)methyl]piperidin-4-yl}-3-[6-(4-methylpiperazin-1-yl)-[1,2,4]triazolo[4,3-b]pyridazin-3-yl]propanamide]",+++ (+++: >35%)
12,"CC(c1ccccc1)N1CCC(NC(=O)CCc2nnc3ccc(N4CCN(C)CC4)nn23)CC1 (stereo not shown) [LIT-TB023, 3-[6-(4-methylpiperazin-1-yl)-[1,2,4]triazolo[4,3-b]pyridazin-3-yl]-N-[1-(1-phenylethyl)piperidin-4-yl]propanamide]",+ (+: <20%)
13,"CN1CCN(c2ccc3nnc(CCC(=O)N[C@@H]4CCN(Cc5ccccc5)C[C@@H]4F)n3n2)CC1 [LIT-TB047, N-[(3S,4R)-1-benzyl-3-fluoropiperidin-4-yl]-3-[6-(4-methylpiperazin-1-yl)-[1,2,4]triazolo[4,3-b]pyridazin-3-yl]propanamide]",++ (++: 20-35%)
14,"CN1CCN(c2ccc3nnc(CCC(=O)N[C@@H]4CCN(Cc5ccccc5)C[C@H]4F)n3n2)CC1 [LIT-TB049, N-[(3R,4R)-1-benzyl-3-fluoropiperidin-4-yl]-3-[6-(4-methylpiperazin-1-yl)-[1,2,4]triazolo[4,3-b]pyridazin-3-yl]propanamide]",+++ (+++: >35%)
15,"O=C(CCc1nnc2ccc(N3CCN(c4ncccn4)CC3)nn12)NC1CCN(Cc2ccccc2)CC1 [LIT-TB004, N-(1-benzylpiperidin-4-yl)-3-(6-(4-(pyrimidin-2-yl)piperazin-1-yl)-[1,2,4]triazolo[4,3-b]pyridazin-3-yl)propanamide]",+ (+: <20%)
16,"COc1ccc(CN2CCC(NC(=O)CCc3nnc4ccc(N5CCN(C)CC5)nn34)CC2)cc1 [LIT-TB017, N-{1-[(4-methoxyphenyl)methyl]piperidin-4-yl}-3-[6-(4-methylpiperazin-1-yl)-[1,2,4]triazolo [4,3-b]pyridazin-3-yl]propanamide]",+++ (+++: >35%)

row,SMILES,PAM TrkB activity
1,"CN1CCN(c2ccc3nnc(CCC(=O)NC4CCN(CC5CCCCC5)CC4)n3n2)CC1 [LIT-TB031, N-[1-(cyclohexylmethyl)piperidin-4-yl]-3-[6-(4-methylpiperazin-1-yl)-[1,2,4]triazolo[4,3-b]pyridazin-3-yl]propanamide]",+++ (+++: >35%)
2,"CN1CCN(c2ccc3nnc(CCC(=O)NC4CCC(Cc5ccccc5)CC4)n3n2)CC1 (stereo not shown) [LIT-TB034, N-(4-benzylcyclohexyl)-3-[6-(4-methylpiperazin-1-yl)-[1,2,4]triazolo[4,3-b]pyridazin-3-yl]propanamide]",+ (+: <20%)
3,"O=C(CCc1nnc2ccc(N3CCC(N4CCCCC4)CC3)nn12)NC1CCN(Cc2ccccc2)CC1 [LIT-TB003, 3-(6-([1,4′-bipiperidin]-1′-yl)-[1,2,4]triazolo[4,3-b]pyridazin-3-yl)-N-(1-benzylpiperidin-4-yl) propanamide]",++ (++: 20-35%)
4,"CN1CCN(c2ccc3nnc(CCC(=O)NC4CCNCC4)n3n2)CC1 [LIT-TB021, 3-(6-(4-methylpiperazin-1-yl)-[1,2,4]triazolo[4,3-b]pyridazin-3-yl)-N-(piperidin-4-yl)propanamide]",+ (+: <20%)
5,"CN1CCN(c2ccc3nnc(CCC(=O)NC4CCN(Cc5ccc(Cl)cc5)CC4)n3n2)CC1 [LIT-TB028, N-{1-[(4-chlorophenyl)methyl]piperidin-4-yl}-3-[6-(4-methylpiperazin-1-yl)-[1,2,4]triazolo[4,3-b]pyridazin-3-yl]propanamide]",+ (+: <20%)
6,"CN1CCN(c2ccc3nnc(CCC(=O)NC4CCN(Cc5ccc(F)cc5)CC4)n3n2)CC1 [LIT-TB020, N-{1-[(4-fluorophenyl)methyl]piperidin-4-yl}-3-[6-(4-methylpiperazin-1-yl)-[1,2,4]triazolo[4,3-b]pyridazin-3-yl]propanamide]",+++ (+++: >35%)
7,"CN1CCN(c2ccc3ncc(CCC(=O)NC4CCN(Cc5ccccc5)CC4)n3n2)CC1 [LIT-TB014, N-(1-benzylpiperidin-4-yl)-3-(6-(4-methylpiperazin-1-yl)imidazo[1,2-b]pyridazin-3-yl)propanamide]",++ (++: 20-35%)
8,"CN1CCN(c2ccc3nnc(CCC(=O)NC4CCN(Cc5ccc(F)cc5F)CC4)n3n2)CC1 [LIT-TB040, N-{1-[(2,4-difluorophenyl)methyl]piperidin-4-yl}-3-[6-(4-methylpiperazin-1-yl)-[1,2,4]triazolo[4,3-b]pyridazin-3-yl]propanamide]",++ (++: 20-35%)
9,"CN1CCN(c2ccc3ncc(CCC(=O)NC4CCN(Cc5ccccc5)CC4)n3c2)CC1 [LIT-TB013, N-(1-benzylpiperidin-4-yl)-3-(6-(4-methylpiperazin-1-yl)imidazo[1,2-a]pyridin-3-yl)propanamide]",+++ (+++: >35%)
10,"CN1CCN(c2ccc3nnc(CCC(=O)NC4CCN(Cc5ccccc5)CC4)n3c2)CC1 [LIT-TB006, N-(1-benzylpiperidin-4-yl)-3-(6-(4-methylpiperazin-1-yl)-[1,2,4]triazolo[4,3-a]pyridin-3-yl)propanamide]",+++ (+++: >35%)
11,"CN1CCN(c2ccc3nnc(CCC(=O)NC4CCN(Cc5cccc(Cl)c5)CC4)n3n2)CC1 [LIT-TB018, N-{1-[(3-chlorophenyl)methyl]piperidin-4-yl}-3-[6-(4-methylpiperazin-1-yl)-[1,2,4]triazolo[4,3-b]pyridazin-3-yl]propanamide]",+++ (+++: >35%)
12,"COc1ccc(CN2CCC(NC(=O)CCc3nnc4ccc(N5CCN(C)CC5)nn34)CC2)c(C)c1.Cl.Cl [LIT-TB045, N-{1-[(4-methoxy-2-methylphenyl)methyl]piperidin-4-yl}-3-[6-(4-methylpiperazin-1-yl)-[1,2,4]triazolo[4,3-b]pyridazin-3-yl]propanamide dihydrochloride]",+++ (+++: >35%)
13,"Cc1[nH]cnc1CN1CCC(NC(=O)CCc2nnc3ccc(N4CCN(C)CC4)nn23)CC1 [LIT-TB032, N-{1-[(5-methyl-1H-imidazol-4-yl)methyl]piperidin-4-yl}-3-[6-(4-methylpiperazin-1-yl)-[1,2,4]triazolo [4,3-b]pyridazin-3-yl]propanamide]",+++ (+++: >35%)
14,"CN1CCN(c2ccc3nnc(CCCNC4CCN(Cc5ccccc5)CC4)n3n2)CC1 [LIT-TB015, 1-benzyl-N-(3-(6-(4-methylpiperazin-1-yl)-[1,2,4]triazolo[4,3-b]pyridazin-3-yl)propyl)piperidin-4-amine]",+++ (+++: >35%)
15,"O=C(CCc1nnc2ccc(N3CCCCC3)nn12)NC1CCN(Cc2ccccc2)CC1 [LIT-TB002, N-(1-benzylpiperidin-4-yl)-3-[6-(piperidin-1-yl)-[1,2,4]triazolo[4,3-b]pyridazin-3-yl]propanamide]",++ (++: 20-35%)
